Assay results reported in patent US20200023001A1, “GlycoFix (Structurally And Functionally Repaired Endothelial Glycocalyx)” (Northeastern University, priority 2018, published 2020).
Values joined by “and” are separate entries in the source; they are usually repeats but may differ in a detail not shown here. Equal entries are not always repeated.

Test system: HS component of RFPEC glycocalyx
Assay: HS component thickness and coverage by 10E4 HS immunofluorescence (Example 2)
Format: cell-based, rat
Method: RFPEC Culture. A rat fat pad endothelial cell (RFPEC) line^37 was utilized, originally isolated from rat epididymal fat pads by Dr. Mia Thi of Albert Einstein College of Medicine (Bronx, N.Y., USA). RFPECs were selected for their ability to naturally express a robust glycocalyx.^38 These ECs were cultured in tissue culture flasks at 37° C. and 5% CO2 in a humidified environment with Dulbecco's Modified Eagle's Medium (DMEM) supplemented with 10% fetal bovine serum (FBS) and 1% penicillin-streptomycin, all purchased from Thermo Fisher Scientific (Waltham, Mass., USA). For 3-(4,5-dimethylthiazol-2-yl)-5-(3-carboxymethoxyphenyl)-2-(4-sulfophenyl)-2H-tetrazolium (MTS) assays (Sigma-Aldrich Co., St Louis, Mo., USA), RFPECs were seeded at 3.7×10^4 cells/cm^2 in tissue culture-treated, 96-well plates (Falcon; Thermo Fisher Scientific) and imaged on a SpectraMax M3 plate reader to show cell viability and metabolic activity. For confocal imaging, RFPECs were seeded onto 12-mm diameter round glass cover slips (Thermo Fisher Scientific) at 1×10^4 cells/cm^2 in tissue culture-treated six-well plates (Falcon; Thermo Fisher Scientific). In both cases, the cells were allowed to grow for 48-60 hours to full confluence before starting the experiment.
RFPEC glycocalyx treatments. For control glycocalyx conditions, RFPEC cultures were grown in DMEM with 10% FBS and 1% penicillin-streptomycin. To generate dysfunctional glycocalyx conditions, the regular culture media of other RFPEC cultures was replaced with two variations of the modified media. For the collapsed glycocalyx configuration, the cells were grown in low serum media that consisted of DMEM with 1% penicillin-streptomycin and only 2% FBS.^1 For the degraded glycocalyx configuration, cultures were pretreated with DMEM/10^% FBS/1% penicillin-streptomycin containing a 2.5×10^−6 IU heparinase III (Hep III) (IBEX Pharmaceutical, Montreal, QC, Canada) enzyme for 2 hours, selectively degrading the HS glycosaminoglycans of the glycocalyx. To simulate a repaired glycocalyx state, the media containing Hep III was replaced with exogenous HS (Celsus Laboratories, Cincinnati, Ohio, USA) dissolved in DMEM/10% FBS/1% penicillin-streptomycin at 59 μg/mL. All RFPEC cultures, including those with untreated, collapsed, degraded, or repaired glycocalyx configurations, were exposed to 550 μg/mL of lyophilized and ultraviolet-sterilized PEG-AuNP during the 16-hour treatment time. Afterward, the free-floating particles were gently washed out before fixation to ensure that only the AuNP entrapped within the glycocalyx would be imaged. The red fluorescence detected from conjugated Alexa Fluor 647 was attributed to AuNP within the RFPEC monolayers (details are given in the “Confocal imaging and analysis” section).
Immunostaining. […]

[1] = RFPEC, Hep III 2 h then 16 h, with or without 59 μg/mL HS

Substance: heparan sulfate [HS]
- HS coverage of RFPEC, result in words (FIG. 10F legend): recovered
- HS coverage as % of the baseline measurements (Hep III, Hep III + 59 μg/mL HS): 44%
- HS component thickness [1]: 1.2 μm and 1.21±0.31 μm
- HS coverage of RFPEC surface [1]: 33.1%+3.7%
